Measurements as given in patent US20230278987A1, “Antimicrobial Compounds and Methods” (Curza Global, LLC, priority 2019, published 2023).
Values after ≈ are worked out from the molar mass of the structure shown. Counter-ions that a name gives are not always drawn. Like-named read-outs stand apart in the source and are kept apart here.

What was measured:
A.baumannii (Ab) = assay: Broth microdilution MIC against A.baumannii (Ab); assay type: cell-based; conditions: Acinetobacter baumannii
Description: (§1) A certified BSL-2 laboratory was used for testing. Compounds were evaluated using the broth microdilution minimum inhibitory concentration (MIC) and minimum bactericidal concentration (MBC) assays defined by Clinical and Laboratory Standards Institute (CLSI) in the M26-A guideline against S.aureus (Sa), E.coli (Ec), K.pneumoniae (Kp), A.baumannii (Ab), E.faecalis (Ef) and P.aeruginosa (Pa).
(§2) MICs were determined using the Clinical Laboratory and Standards Institute (CLSI) Broth Microdilution Method with slight modification. Clinical and Laboratory Standards Institute (2012). “Methods for dilution antimicrobial susceptibility tests for bacteria that grow aerobically; approved standard, 9th ed. M07-A9. Clinical and Laboratory Standards Institute, Wayne, PA.” Serial two-fold dilutions of compounds are prepared in sterile clear roundbottom 96-well plates.
(§3) To prepare microdilution trays, two-fold dilutions of antimicrobial agent are prepared in growth medium: Cation-Adjusted Mueller-Hinton Broth (CAMHB), or CAMHB supplemented with sodium bicarbonate (6.25 or 25 mM final concentration prepared from a 1.0 M stock solution) or CAMHB supplemented with heat inactivated human serum (Fisher Cat. # BP2657100) 0-50% by adding 200 µL of the highest concentration to be tested (64 µg/mL, for example) in row A, mixing and transferring 100 µL from row A to 100 µL growth medium in row B, then repeating the mixing and transferring through row H of the 96-well plate, discarding the excess 100 µL remaining. This slight modification to the CLSI protocol enables evaluation of MICs for 3 compounds per plate in triplicate, albeit with only 8 compound dilutions (CLSI protocol enables 2 compounds in triplicate with 10 dilutions). Bacterial suspensions are added to a final concentration of 5 × 10^4 CFU/well by adding 5 µL of a 1:10 dilution of a 0.5 McFarland suspension (1 × 10^8 CFU/mL) for each bacterium evaluated. Bacterial suspensions were prepared using the growth method described by CLSI. Well-isolated colonies (3-5 from an agar plate) were selected using a sterile loop and used to inoculate a tube containing 4 mL of CAMHB. The cultures are incubated at 35 ± 2° C. until it achieves or exceeds the turbidity of the 0.5 McFarland standard, determined by measuring A600nm (usually two to six hours). When growth exceeds a 0.5 McFarland standard, the turbidity is adjusted with broth to be equivalent to a 0.5 McFarland standard.

[1] = test system: E.coli S30 extract (bacterial protein synthesis); assay: E.coli S30 extract: inhibition of bacterial protein synthesis (luciferase); assay type: biochemical; conditions: 37° C. for 1 hour
Description: E.coli S30 extract: Inhibition of bacterial protein synthesis was determined using the E.coli S30 Extract System for Circular DNA (Promega catalog #L-2010) and Luciferase Assay Reagent (Promega catalog #E1500) with slight modifications to a published protocol. Fyfe, C., Sutcliffe, J.A. and Grossman, T.H. (2012) “Development and characterization of a Pseudomonas aeruginosa in vitro coupled transcription-translation assay system for evaluation of translation inhibitors” J. Microbiol. Methods 90(3), 256-261.
Compounds were serial diluted in 0.5 mL microcentrifuge tubes by mixing and transferring 50 µL from the highest concentration to 50 µL of water, mixing and transferring 50 µL of this 2-fold dilution to 50 µL of water. This mixing and transferring was repeated so that there are a total of 8 tubes with serial dilutions of compound at 10× the desired screening concentration that are ultimately diluted to 1× by the addition of S30 luciferase synthesis mixture. Serial dilutions of compounds were added (2 µL) to wells in a black round bottom 96-well plate. Water (2 µL) was used as a “no inhibitor” control in 4 wells/plate. No DNA control reaction mixture (20 µL; see below) was used as a control in 4 wells/plate for background luminescence. S30 luciferase synthesis mixture (18 µL; see below) was added to wells with compounds or water mixture and incubated at 37° C. for 1 hour. Reactions were stopped by transferring to 4° C. refrigerator for 5 minutes then 25 µL of luciferase activity mix was added. Luminescence was measured using a BioTek Synergy HTX plate reader. % Inhibition was determined relative to no inhibitor controls.
S30 luciferase synthesis mixture: • 445 µL S30 extract, circular • 712 µL S30 Premix without amino acids • 4.45 µL pBESTluc™ DNA (1 µg/ µL) • 78 µL complete amino acid mixture • 267 µL water
No DNA control: • 20 µL S30 extract, circular • 32 µL S30 Premix without amino acids • 7 µL complete amino acid mixture • 21 µL water

[2] = biological target: Rabbit Reticulocyte Lysate (eukaryotic protein synthesis); assay: Rabbit Reticulocyte Lysate: inhibition of eukaryotic protein synthesis (luciferase); assay type: biochemical; conditions: 30° C. for 90 minutes, read-out: retic. IC50
Description: Inhibition of eukaryotic protein synthesis was determined using the Rabbit Reticulocyte Lysate System, Nuclease-Treated from Promega (catalog #L-4960) with slight modifications to the manufacturer’s protocol. Compounds were serial diluted in 0.5 mL microcentrifuge tubes by mixing and transferring 50 µL from the highest concentration to 50 µL of water, mixing and transferring 50 µL of this 2-fold dilution to 50 µL of water. This mixing and transferring was repeated so that there are a total of 8 tubes with serial dilutions of compound at 10× the desired screening concentration that are ultimately diluted to 1× by the addition of rabbit reticulocyte luciferase synthesis mixture. Serial dilutions of compounds were added (2.5 µL) to wells in a black round bottom 96-well plate. Water (2.5 µL) was used as a “no inhibitor” control in 4 wells/plate. No RNA control reaction mixture (2 µL; see below) was used as a control in 4 wells/plate for background luminescence. Rabbit reticulocyte luciferase synthesis mixture (22.5 µL; see below) was added to wells with compounds or water mixture and incubated at 30° C. for 90 minutes. Luciferase assay reagent (25 µL) was added with luminescence measured using a BioTek Synergy HTX plate reader. % Inhibition was determined relative to no inhibitor controls.
Rabbit reticulocyte luciferase synthesis mixture: • 1,000 µL rabbit reticulocyte lysate • 5.7 µL Luciferase Control RNA (1 µg/ µL) • 26 µL complete amino acid mixture • 395 µL water
No RNA Control • 70 µL rabbit reticulocyte lysate • 2 µL complete amino acid mixture • 28 µL water

P.aeruginosa (Pa) = assay: Broth microdilution MIC against P.aeruginosa (Pa); assay type: cell-based; conditions: Pseudomonas aeruginosa
Description: as §1, §2, §3

E.coli (Ec) = assay: Broth microdilution MIC against E.coli (Ec); assay type: cell-based; conditions: Escherichia coli
Description: as §1, §2, §3

S.aureus (Sa) = assay: Broth microdilution MIC against S.aureus (Sa); assay type: cell-based; conditions: Staphylococcus aureus
Description: as §1, §2, §3

E.faecalis (Ef) = assay: Broth microdilution MIC against E.faecalis (Ef); assay type: cell-based; conditions: Enterococcus faecalis
Description: as §1, §2, §3

[3] = CAMHB supplemented with sodium bicarbonate 6.25 mM, read-out: Ab +bicarb 6.25 (MIC)
[4] = CAMHB supplemented with sodium bicarbonate 6.25 mM, read-out: Pa +bicarb 6.25 (MIC)
[5] = CAMHB supplemented with sodium bicarbonate 6.25 mM, read-out: E. coli + bicarb 6.25 (MIC)
[6] = CAMHB supplemented with sodium bicarbonate 6.25 mM, read-out: Sa + bicarb 6.25 (MIC)
[7] = CAMHB supplemented with sodium bicarbonate 6.25 mM, read-out: Ef +bicarb 6.25 (MIC)
[8] = CAMHB supplemented with sodium bicarbonate 25 mM, read-out: Ab +bicarb 25 (MIC)
[9] = CAMHB supplemented with sodium bicarbonate 25 mM, read-out: Pa +bicarb 25 (MIC)
[10] = CAMHB supplemented with sodium bicarbonate 25 mM, read-out: E.coli + bicarb 25 (MIC)
[11] = CAMHB supplemented with sodium bicarbonate 25 mM, read-out: Sa + bicarb 25 (MIC)
[12] = CAMHB supplemented with sodium bicarbonate 25 mM, read-out: Ef +bicarb 25 (MIC)
[13] = read-out: E.coli + bicarb 25 (MIC)

| SMILES | MIC (A.baumannii (Ab); [3]) [µg/mL] | IC50 [1] [nM] | IC50 [2] [nM] | MIC (P.aeruginosa (Pa); [4]) [µg/mL] | MIC (E.coli (Ec); [5]) [µg/mL] | MIC (S.aureus (Sa); [6]) [µg/mL] | MIC (E.faecalis (Ef); [7]) [µg/mL] | MIC (A.baumannii (Ab); [8]) [µg/mL] | MIC (P.aeruginosa (Pa); [9]) [µg/mL] | MIC (E.coli (Ec); [10]) [µg/mL] | MIC (S.aureus (Sa); [11]) [µg/mL] | MIC (E.faecalis (Ef); [12]) [µg/mL] | MIC (A.baumannii (Ab); read-out: Ab +bicarb 25 (MIC)) [µg/mL] | MIC (P.aeruginosa (Pa); read-out: Pa +bicarb 25 (MIC)) [µg/mL] | MIC (E.coli (Ec); [13]) [µg/mL] | MIC (S.aureus (Sa); read-out: Sa + bicarb 25 (MIC)) [µg/mL] | MIC (E.faecalis (Ef); read-out: Ef +bicarb 25 (MIC)) [µg/mL] |
| --- | --- | --- | --- | --- | --- | --- | --- | --- | --- | --- | --- | --- | --- | --- | --- | --- | --- |
| CC(C)(N)C(=O)N1CCN(C(=O)Nc2ccn(-c3ccc4c(c3)CCC(N[C@H]3CC[C@@H](N)C3)C4)c(=O)n2)CC1 (stereo partly shown) [Compound 26] | > 32 | < 500 | ≥ 1000 | > 32 | < 8 | < 8 | > 32 |  |  |  |  |  |  |  |  |  |  |
| CC(C)(N)C(=O)N1CCN(C(=O)Nc2ccn(-c3ccc4c(c3)CCC(N3CC(N)C3)C4)c(=O)n2)CC1 (stereo not shown) [Compound 39] | > 32 | 500 to 1000 | ≥ 1000 | > 32 | 8 to 32 | 8 to 32 | > 32 |  |  |  |  |  |  |  |  |  |  |
| CC(C)(N)C(=O)N1CCN(C(=O)Nc2ccn(-c3ccc4c(c3)CCC(N[C@H]3CC[C@H](N)CC3)C4)c(=O)n2)CC1 (stereo partly shown) [Compound 7] |  | < 500 | ≥ 1000 |  |  |  |  | > 32 | > 32 | < 8 | < 8 | < 8 |  |  |  |  |  |
| CC(C)(N)C(=O)N1CCN(C(=O)Nc2ccn(-c3ccc4c(c3)CN([C@H]3CC[C@H](N)CC3)C4)c(=O)n2)CC1 [Compound 46, 4-(2-amino-2-methylpropanoyl)-N-(1-(2-((trans)-4-aminocyclohexyl)isoindolin-5-yl)-2-oxo-1,2-dihydropyrimidin-4-yl)piperazine-1-carboxamide hydrochloride salt] |  | < 500 | ≥ 1000 |  |  |  |  |  |  |  |  |  | 8 to 32 | 8 to 32 | < 8 | < 8 | 8 to 32 |
| CC(C)(N)C(=O)N1CCN(C(=O)Nc2ccn(-c3ccc4c(c3)CCC(N(CC3CC3)[C@H]3CC[C@H](N)C3)C4)c(=O)n2)CC1 (stereo partly shown) [Compound 21] |  | < 500 | ≥ 1000 |  |  |  |  | 8 to 32 (≈ 13.5 to 54.2 µM) | 8 to 32 (≈ 13.5 to 54.2 µM) | < 8 | < 8 | < 8 |  |  |  |  |  |
| CC(C)(N)C(=O)N1CCN(C(=O)Nc2ccn(-c3ccc4c(c3)CCC(N(CC3CC3)[C@H]3CC[C@H](N)CC3)C4)c(=O)n2)CC1 (stereo partly drawn) [Compound 17, 4-(2-Amino-2-methylpropanoyl)-N-(1-(6-(((trans)-4-aminocyclohexyl)(cyclopropylmethyl)amino)-5,6,7,8-tetrahydronaphthalen-2-yl)-2-oxo-1,2-dihydropyrimidin-4-yl)piperazine-1-carboxamide hydrochloride salt] |  | 500 to 1000 | ≥ 1000 |  |  |  |  |  |  |  |  |  | 8 to 32 | 8 to 32 | < 8 | < 8 | < 8 |
| CC(C)(N)C(=O)N1CCN(C(=O)Nc2ccn(-c3ccc4c(c3)OCC(N3CCCC(N)CC3)C4)c(=O)n2)CC1 (stereo not shown) [Compound 22] | > 32 | 500 to 1000 | ≥ 1000 | > 32 | < 8 | 8 to 32 | > 32 |  |  |  |  |  |  |  |  |  |  |
